Assay results reported in paper PMC12281424, “A Rac-specific competitive inhibitor of guanine nucleotide binding reduces metastasis in triple-negative breast cancer” (Cell Reports Medicine, 2025).

What was measured:
[1] = biological target: TSSK2(h) (Homo sapiens, UniProt Q96PF2); experiment: Kinase Profiler; type: biochemical
Method: (§1) The kinase profiler was performed by the company Eurofins (Discovery, Panlab and Cerep).

[2] = tested on: Protein Ser/Thr Kinase, PKC, Non- Selective; experiment: Safety screen; type: biochemical, rat
Method: as §1

[3] = biological target: CDC42 (Homo sapiens, UniProt P60953); experiment: GEF-stimulated nucleotide exchange; type: biochemical; design: Full-length RAC2, RHOG, RHOA and CDC42 were purified as previously described; made in house; TIAM DH-PH in E. coli Rosetta (DE3) pLysS; settings: 10^-5 M
Sequence of CDC42 (P60953 whole entry): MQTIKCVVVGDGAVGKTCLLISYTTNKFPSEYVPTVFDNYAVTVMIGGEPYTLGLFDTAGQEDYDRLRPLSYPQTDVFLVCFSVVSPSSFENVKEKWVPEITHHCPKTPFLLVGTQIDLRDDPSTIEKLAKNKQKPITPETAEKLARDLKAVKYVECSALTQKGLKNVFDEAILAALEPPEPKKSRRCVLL
Excerpt: Figure 4 A41 selectively impairs RAC protein activation (A) Representative surface plasmon resonance (SPR) sensograms of binding of immobilized RHOA or CDC42 with indicated increasing concentrations of A41 (N > 3). (B) Effect of A41 on GEF-stimulated RAC2, RHOG, RHOA, and CDC42 nucleotide exchange. […] Kobs is expressed as mean ± SEM. ∗p < 0.001 vs. control. (C) Effect of A41 on RAC1 G30S activation. […] The GEF TRIO was used to induce nucleotide exchange (N = 3). Data are expressed as mean ± SEM. (D) Immunoblot analysis and associated quantification of RAC-GTP level and total RAC expression in NIH-3T3 fibroblasts expressing RAC wild-type (RAC1 WT) or RAC1 oncomutants (RAC1 P29S and RAC1b) in the absence (Ctrl) and presence of A41 (10 μM). RAC activation was measured as the ratio of RAC-GTP to total RAC and expressed relative to Ctrl condition. Data are presented as mean ± SEM. ∗∗∗p < 0.001 vs. controls.
Full-length RAC1 carrying a 6xHis tag in C-terminus was purified as previously described.[64] […] Specific exchange activity toward RHOA determined by fluorescence kinetics is 0.04 s^−1M^−1.
Nucleotide exchange kinetics were measured by recording the increase in fluorescence following the association of mant-GTP on GDP-bound RHO protein or the decay in fluorescence following the dissociation of mant-GDP pre-loaded onto the RHO protein (λEx = 360 nm, λEm = 440 nm) as previously described.[39] […]

[4] = biological target: Cholecystokinin CCK2 (CCKB) (Homo sapiens, UniProt P32239); experiment: Safety screen; type: binding
Sequence of Cholecystokinin CCK2 (CCKB) (P32239 whole entry): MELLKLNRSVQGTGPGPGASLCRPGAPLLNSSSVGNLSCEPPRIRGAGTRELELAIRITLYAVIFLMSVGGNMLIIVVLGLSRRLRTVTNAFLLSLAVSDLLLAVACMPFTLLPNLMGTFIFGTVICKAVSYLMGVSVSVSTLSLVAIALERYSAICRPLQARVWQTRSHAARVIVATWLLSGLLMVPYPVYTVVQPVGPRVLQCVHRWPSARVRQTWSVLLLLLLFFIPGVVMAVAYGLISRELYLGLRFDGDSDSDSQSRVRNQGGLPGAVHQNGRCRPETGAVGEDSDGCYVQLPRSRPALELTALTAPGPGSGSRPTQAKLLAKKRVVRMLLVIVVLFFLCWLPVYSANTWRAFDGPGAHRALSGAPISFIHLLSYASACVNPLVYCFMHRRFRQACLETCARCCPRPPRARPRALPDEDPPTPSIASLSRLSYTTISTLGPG
Method: (§2) Blood cell counts, kinase profiler, safety screen, bacterial cytotoxicity, Ames, micronucleus assays were performed by the company Eurofins (France).

[5] = biological target: LATS2(h) (Homo sapiens, UniProt Q9NRM7); experiment: Kinase Profiler; type: biochemical
Sequence of LATS2(h) (Q9NRM7 whole entry): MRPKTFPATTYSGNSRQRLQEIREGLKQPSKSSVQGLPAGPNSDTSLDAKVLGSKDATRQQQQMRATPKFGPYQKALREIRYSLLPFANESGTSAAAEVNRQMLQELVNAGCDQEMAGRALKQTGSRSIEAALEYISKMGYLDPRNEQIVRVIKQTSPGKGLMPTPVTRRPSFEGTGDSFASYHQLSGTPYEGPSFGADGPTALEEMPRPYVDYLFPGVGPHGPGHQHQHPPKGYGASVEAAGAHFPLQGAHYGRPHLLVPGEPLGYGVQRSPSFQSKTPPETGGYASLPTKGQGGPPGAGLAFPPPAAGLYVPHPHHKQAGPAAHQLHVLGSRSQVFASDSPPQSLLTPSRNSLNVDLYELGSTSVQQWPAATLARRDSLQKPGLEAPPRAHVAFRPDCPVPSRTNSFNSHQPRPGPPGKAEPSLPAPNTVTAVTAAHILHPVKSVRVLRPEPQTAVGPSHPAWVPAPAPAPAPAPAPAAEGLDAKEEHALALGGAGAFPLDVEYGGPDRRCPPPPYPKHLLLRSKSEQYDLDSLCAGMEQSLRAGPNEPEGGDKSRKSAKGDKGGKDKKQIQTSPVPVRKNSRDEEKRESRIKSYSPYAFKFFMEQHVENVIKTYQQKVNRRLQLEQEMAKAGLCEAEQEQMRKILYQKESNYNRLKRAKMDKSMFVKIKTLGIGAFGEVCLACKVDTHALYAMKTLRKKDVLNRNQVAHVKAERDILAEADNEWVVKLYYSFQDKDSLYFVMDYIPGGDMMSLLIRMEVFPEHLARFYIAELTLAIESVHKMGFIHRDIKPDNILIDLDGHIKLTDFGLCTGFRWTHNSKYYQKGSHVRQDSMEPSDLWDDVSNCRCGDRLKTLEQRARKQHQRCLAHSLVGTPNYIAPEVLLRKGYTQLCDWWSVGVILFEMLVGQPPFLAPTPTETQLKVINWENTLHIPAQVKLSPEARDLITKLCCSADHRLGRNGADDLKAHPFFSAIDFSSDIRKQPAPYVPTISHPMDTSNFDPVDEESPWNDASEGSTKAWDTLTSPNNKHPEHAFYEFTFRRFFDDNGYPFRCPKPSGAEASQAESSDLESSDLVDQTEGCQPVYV
Method: as §1

[6] = biological target: LATS1(h) (Homo sapiens, UniProt O95835); experiment: Kinase Profiler; type: biochemical
Sequence of LATS1(h) (O95835 whole entry): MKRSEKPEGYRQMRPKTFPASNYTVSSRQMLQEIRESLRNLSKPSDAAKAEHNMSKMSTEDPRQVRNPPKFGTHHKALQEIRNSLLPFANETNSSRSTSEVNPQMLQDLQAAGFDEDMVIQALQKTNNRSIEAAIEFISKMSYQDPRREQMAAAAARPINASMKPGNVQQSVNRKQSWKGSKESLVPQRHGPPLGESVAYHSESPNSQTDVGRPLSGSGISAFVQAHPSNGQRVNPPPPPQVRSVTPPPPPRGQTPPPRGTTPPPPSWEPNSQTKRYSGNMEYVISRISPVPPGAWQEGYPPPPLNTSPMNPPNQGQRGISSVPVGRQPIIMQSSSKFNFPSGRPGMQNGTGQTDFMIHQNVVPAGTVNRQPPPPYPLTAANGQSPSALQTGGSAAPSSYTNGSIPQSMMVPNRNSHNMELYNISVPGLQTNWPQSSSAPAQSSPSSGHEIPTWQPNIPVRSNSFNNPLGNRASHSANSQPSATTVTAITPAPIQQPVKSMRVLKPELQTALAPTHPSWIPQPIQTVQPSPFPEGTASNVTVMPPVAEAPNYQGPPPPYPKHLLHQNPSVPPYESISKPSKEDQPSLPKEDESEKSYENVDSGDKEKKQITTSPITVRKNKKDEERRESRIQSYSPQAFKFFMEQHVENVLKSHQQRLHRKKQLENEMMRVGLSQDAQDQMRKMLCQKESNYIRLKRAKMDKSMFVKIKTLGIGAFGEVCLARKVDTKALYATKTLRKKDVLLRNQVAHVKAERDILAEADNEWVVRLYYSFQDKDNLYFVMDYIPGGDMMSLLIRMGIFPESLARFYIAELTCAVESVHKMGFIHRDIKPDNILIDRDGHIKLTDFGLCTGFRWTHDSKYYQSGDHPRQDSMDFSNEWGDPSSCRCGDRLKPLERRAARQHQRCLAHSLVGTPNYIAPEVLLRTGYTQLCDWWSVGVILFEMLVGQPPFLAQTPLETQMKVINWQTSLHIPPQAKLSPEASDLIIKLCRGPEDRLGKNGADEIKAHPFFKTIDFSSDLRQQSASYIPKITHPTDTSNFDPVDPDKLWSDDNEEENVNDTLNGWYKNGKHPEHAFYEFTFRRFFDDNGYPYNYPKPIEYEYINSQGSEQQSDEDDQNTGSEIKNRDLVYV
Method: as §1

[7] = biological target: CaMKIIγ(h) (Homo sapiens, UniProt Q13555); experiment: Kinase Profiler; type: biochemical
Method: as §1

[8] = biological target: Abl(T315I)(h) (Homo sapiens, UniProt P00519, T315I); experiment: Kinase Profiler; type: biochemical
Method: as §1

[9] = biological target: MRCKβ(h) (Homo sapiens, UniProt Q9Y5S2); experiment: Kinase Profiler; type: biochemical
Method: as §1

[10] = biological target: Cyclooxygenase COX-2 (Homo sapiens, UniProt P35354); experiment: Safety screen; type: biochemical
Sequence of Cyclooxygenase COX-2 (P35354 18-604): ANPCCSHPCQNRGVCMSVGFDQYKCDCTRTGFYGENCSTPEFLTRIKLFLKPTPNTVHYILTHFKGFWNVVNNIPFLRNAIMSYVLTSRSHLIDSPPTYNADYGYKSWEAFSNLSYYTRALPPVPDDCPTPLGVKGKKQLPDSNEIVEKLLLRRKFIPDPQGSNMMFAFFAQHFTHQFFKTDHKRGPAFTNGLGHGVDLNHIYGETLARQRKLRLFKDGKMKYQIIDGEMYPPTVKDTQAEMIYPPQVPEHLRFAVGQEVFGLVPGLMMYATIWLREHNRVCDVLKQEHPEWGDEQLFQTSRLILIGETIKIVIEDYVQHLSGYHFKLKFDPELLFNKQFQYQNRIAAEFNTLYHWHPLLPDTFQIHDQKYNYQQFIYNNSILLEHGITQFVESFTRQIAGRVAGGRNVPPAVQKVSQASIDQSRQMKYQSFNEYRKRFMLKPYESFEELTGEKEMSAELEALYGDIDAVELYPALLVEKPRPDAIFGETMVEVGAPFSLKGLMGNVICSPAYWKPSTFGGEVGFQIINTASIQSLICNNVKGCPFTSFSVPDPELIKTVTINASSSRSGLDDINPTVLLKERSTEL
Method: (§3) Blood cell counts, kinase profiler, safety screen, bacterial cytotoxicity, Ames, micronucleus assays were performed by the company Eurofins (France). The kinase profiler was performed by the company Eurofins (Discovery, Panlab and Cerep).

[11] = biological target: GRK1(h) (Homo sapiens, UniProt Q15835); experiment: Kinase Profiler; type: biochemical
Sequence of GRK1(h) (Q15835 whole entry): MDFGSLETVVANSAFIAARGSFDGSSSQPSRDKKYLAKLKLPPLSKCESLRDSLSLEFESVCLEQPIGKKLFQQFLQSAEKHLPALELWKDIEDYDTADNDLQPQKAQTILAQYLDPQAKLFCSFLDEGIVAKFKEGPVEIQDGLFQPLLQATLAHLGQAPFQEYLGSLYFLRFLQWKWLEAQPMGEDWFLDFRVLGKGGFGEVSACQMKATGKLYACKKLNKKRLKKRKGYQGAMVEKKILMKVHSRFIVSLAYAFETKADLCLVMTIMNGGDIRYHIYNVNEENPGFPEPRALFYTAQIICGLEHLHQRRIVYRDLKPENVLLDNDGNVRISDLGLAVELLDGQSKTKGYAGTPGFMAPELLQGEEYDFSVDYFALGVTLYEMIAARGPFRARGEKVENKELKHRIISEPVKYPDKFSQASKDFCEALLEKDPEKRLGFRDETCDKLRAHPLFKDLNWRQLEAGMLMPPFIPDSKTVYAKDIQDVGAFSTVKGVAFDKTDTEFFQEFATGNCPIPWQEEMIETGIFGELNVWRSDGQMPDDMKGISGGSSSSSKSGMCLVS
Method: as §3

[12] = tested on: GABAA, Flunitrazepam, Central; experiment: Safety screen; type: binding, rat
Method: as §2

[13] = biological target: CLK3(h) (Homo sapiens, UniProt P49761); experiment: Kinase Profiler; type: biochemical
Method: as §1

[14] = biological target: TTBK1(h) (Homo sapiens, UniProt Q5TCY1); experiment: Kinase Profiler; type: biochemical
Method: as §1

[15] = biological target: Hck(h) activated (Homo sapiens, UniProt P08631); experiment: Kinase Profiler; type: biochemical
Sequence of Hck(h) activated (P08631 whole entry): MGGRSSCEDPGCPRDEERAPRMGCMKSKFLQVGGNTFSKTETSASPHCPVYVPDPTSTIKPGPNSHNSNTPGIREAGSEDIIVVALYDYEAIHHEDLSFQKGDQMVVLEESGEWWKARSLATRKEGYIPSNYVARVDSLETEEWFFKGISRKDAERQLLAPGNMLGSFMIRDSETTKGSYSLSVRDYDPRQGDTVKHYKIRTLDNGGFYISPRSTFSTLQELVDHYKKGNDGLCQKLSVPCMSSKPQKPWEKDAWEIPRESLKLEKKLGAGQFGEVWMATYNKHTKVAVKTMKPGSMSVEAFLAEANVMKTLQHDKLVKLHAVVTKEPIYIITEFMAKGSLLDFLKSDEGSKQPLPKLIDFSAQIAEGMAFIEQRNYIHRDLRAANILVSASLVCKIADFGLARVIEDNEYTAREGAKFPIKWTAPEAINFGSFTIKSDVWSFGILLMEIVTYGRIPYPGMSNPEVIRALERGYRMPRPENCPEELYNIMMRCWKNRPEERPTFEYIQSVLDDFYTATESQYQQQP
Method: as §1

[16] = biological target: Adenosine A2A (Homo sapiens, UniProt P29274); experiment: Safety screen; type: binding
Sequence of Adenosine A2A (P29274 whole entry): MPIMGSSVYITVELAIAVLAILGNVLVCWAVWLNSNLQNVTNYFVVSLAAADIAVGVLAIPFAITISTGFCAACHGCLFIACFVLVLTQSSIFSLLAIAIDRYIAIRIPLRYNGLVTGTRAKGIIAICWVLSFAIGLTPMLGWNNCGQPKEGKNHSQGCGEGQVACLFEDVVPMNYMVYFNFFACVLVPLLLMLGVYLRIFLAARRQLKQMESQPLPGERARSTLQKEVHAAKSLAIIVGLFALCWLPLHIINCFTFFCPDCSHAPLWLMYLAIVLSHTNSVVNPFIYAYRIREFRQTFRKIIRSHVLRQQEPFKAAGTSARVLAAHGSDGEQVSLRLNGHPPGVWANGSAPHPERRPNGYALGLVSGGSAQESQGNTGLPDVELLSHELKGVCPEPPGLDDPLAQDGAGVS
Method: as §1

## COc1ccc(OC)c(NS(=O)(=O)c2ccc(NC(=O)CCSc3ccc(C)cc3)cc2)c1 [Compound A41]
[1]
  Activity(%): 111%
[2]
  % inh.: 48%
[3]
  activation of CDC42 induced by TIAM DH-PH: did not change the activation
[4]
  % inh.: 0%
[5]
  Activity(%): 110%
[6]
  Activity(%): 98%
[7]
  Activity(%): 92%
[8]
  Activity(%): 117%
[9]
  Activity(%): 102%
[10]
  % inh.: 11%
[11]
  Activity(%): 103%
[12]
  % inh.: 15%
[13]
  Activity(%): 110%
[14]
  Activity(%): 103%
[15]
  Activity(%): 102%
[16]
  % inh.: 16%
